Data: paper PMC9733664 (Blood cells, molecules & diseases, 2021)

What was measured:
[1] = test system: Class IIa and Class IV HDAC isoforms; assay: In vitro HDAC inhibition assay; assay type: biochemical; details: 10-dose IC50 mode
[2] = test system: γ-globin and β-globin mRNA in SCD erythroid progenitors; assay: Globin mRNA in sickle erythroid progenitors; assay type: cell-based, human; details: for increase in γ-globin mRNA: day 7 to day 12, n = 6 SCD subjects, vs vehicle
[3] = test system: HbF in SCD erythroid progenitors; assay: Flow cytometry for F-cells and HbF MFI in sickle erythroid progenitors; assay type: cell-based, human; details: for mean F-cells: vehicle 5.8%
[4] = test system: HbF and HbS protein in SCD erythroid progenitors; assay: Western blot for HbF and HbS protein in sickle erythroid progenitors; assay type: cell-based, human
[5] = test system: SCD erythroid progenitors; assay: Erythroid maturation and growth of sickle erythroid progenitors; assay type: cell-based, human; details: 5 days of treatment (day 12)
HDAC6 = target: T1, HDAC6 (Homo sapiens, UniProt Q9UBN7); assay: In vitro HDAC inhibition assay; assay type: biochemical; details: 10-dose IC50 mode
T1 sequence (Q9UBN7 1-1215): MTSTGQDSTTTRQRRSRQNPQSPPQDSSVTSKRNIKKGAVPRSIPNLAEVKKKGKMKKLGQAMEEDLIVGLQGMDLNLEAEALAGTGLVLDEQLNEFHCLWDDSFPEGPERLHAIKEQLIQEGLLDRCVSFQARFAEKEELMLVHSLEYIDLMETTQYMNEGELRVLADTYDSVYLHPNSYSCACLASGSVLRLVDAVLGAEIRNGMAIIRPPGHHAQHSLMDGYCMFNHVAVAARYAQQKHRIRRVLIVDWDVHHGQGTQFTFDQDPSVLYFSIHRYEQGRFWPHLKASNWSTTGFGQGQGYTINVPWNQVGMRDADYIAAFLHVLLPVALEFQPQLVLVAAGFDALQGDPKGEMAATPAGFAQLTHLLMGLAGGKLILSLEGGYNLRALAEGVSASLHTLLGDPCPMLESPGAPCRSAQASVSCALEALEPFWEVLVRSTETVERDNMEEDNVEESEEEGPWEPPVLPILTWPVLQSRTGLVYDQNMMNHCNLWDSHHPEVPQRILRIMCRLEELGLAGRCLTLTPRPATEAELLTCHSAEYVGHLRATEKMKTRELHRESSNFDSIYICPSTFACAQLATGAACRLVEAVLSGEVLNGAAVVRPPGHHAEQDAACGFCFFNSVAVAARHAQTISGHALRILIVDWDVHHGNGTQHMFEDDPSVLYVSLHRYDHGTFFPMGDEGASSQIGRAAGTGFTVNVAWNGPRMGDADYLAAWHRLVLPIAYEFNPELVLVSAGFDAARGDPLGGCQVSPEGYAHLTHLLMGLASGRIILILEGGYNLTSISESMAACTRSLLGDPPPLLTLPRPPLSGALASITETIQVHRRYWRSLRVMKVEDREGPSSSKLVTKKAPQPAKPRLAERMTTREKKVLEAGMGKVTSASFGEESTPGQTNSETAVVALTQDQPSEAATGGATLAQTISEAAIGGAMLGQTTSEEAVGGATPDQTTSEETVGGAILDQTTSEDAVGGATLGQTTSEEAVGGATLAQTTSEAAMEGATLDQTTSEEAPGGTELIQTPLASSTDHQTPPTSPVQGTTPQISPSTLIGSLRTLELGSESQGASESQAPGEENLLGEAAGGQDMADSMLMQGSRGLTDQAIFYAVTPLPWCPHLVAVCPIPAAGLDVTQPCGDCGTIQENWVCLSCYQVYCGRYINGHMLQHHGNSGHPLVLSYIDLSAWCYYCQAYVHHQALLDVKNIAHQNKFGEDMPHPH

K562 cells = assay: Cell growth/proliferation of K562 cells; assay type: cell-based, human; details: over the concentration range tested
Class I HDAC (HDAC 1-3) = assay: In vitro HDAC inhibition assay; assay type: biochemical
[6] = test system: γ-globin mRNA in K562 cells; assay: γ-globin mRNA induction in K562 cells; assay type: cell-based, human; details: 48 h, CT108 3 μM, CT-101 5 μM, ST-20 20 μM, valproic acid 1 mM and 2 mM, vs control
[7] = test system: acetylated histone H3 (acH3); assay: Western blot for nuclear acetylated histone H3 in sickle erythroid progenitors; assay type: cell-based, human
[8] = test system: acH3 and RNA PolII at γ-globin promoter, β-globin promoter, LCR-HS2; assay type: cell-based, human; details: for RNA PolII and acH3 chromatin enrichment in the LCR-HS2: Fig. 5E
HbF [9] = details: SCD patients, intravenous; cited from earlier work
HDACs 1-9, and 11 = assay: In vitro HDAC inhibition assay, profile over all isoforms tested; details: heat map Fig. 1A
[10] = nine SCD subjects, 10 mg per day, 3 days per week; ref NCT01245179; cited from earlier work
HbF [11] = details: three patients with Hodgkin's lymphoma, 3 months of therapy; cited from earlier work

CCCCCCCC(=O)SCC/C=C/[C@@H]1CC(=O)NCc2nc(cs2)C2=N[C@@](C)(CS2)C(=O)N[C@@H](C(C)C)C(=O)N1 [CT-101]
inhibition of Class IIa and Class IV isoforms [1]: little to no inhibition
increase in γ-globin mRNA ([2]; 100 nM): 3.9 fold
increase in γ-globin mRNA ([2]; 200 nM): 7 fold
β-globin transcription ([2]; sickle erythroid progenitors): did not alter
mean F-cells ([3]; 100 nM, p < 0.01): 8.1%
mean F-cells ([3]; 200 nM, p < 0.001): 7.4%
mean increase in the proportion of F-cells ([3]; vs DMSO vehicle controls, same subject): 30%
HbF level increase by Western blot ([4]; 200 nM, vs untreated control progenitors, p < 0.01): up to 1.7 fold
HbS protein level ([4]; Western blot, Fig. 3C): not significantly changed
decrease in number of orthochromatic erythroid cells ([5]; 100 nM): 42%
decrease in number of orthochromatic erythroid cells ([5]; 200 nM): 56%
inhibition of HDAC6 (HDAC6): Some inhibition
cell proliferation (K562 cells): did not inhibit cell proliferation
IC50 (Class I HDAC (HDAC 1-3); read-out: IC50 as Class I HDACi, lowest level over Class I isoforms): ≥ 4 nM
IC50 for HDAC 1-3 (Class I HDAC (HDAC 1-3); singlet 10-dose IC50 mode, 3-fold serial dilution, active free thiol form tested): nanomolar concentrations
γ-globin mRNA / HbF expression induction [6]: 11 fold
increase in acH3 level ([7]; 100 nM, n = 6): 1.8 fold
increase in acH3 level ([7]; 200 nM, n = 6): 2.0 fold
acH3 chromatin enrichment in the γ-globin promoter ([8]; CT-101 100 mM and 200 nM, 48 h): 3.8 fold
RNA PolII and acH3 chromatin enrichment in the LCR-HS2 [8]: increased
RNA PolII and acH3 chromatin enrichment in the β^s-globin proximal promoter ([8]; vs vehicle treated cells): not changed

NC(=O)NO [HU, hydroxyurea, reference compound]
HbF level increase by Western blot ([4]; HU 75 μM, vs untreated control): 1.3 fold

CCCC(=O)O.CCCC(=O)O.CCCC(=O)O.CCCC(=O)O.N=C(N)NCCC[C@H](N)C(=O)O.N=C(N)NCCC[C@H](N)C(=O)O.N=C(N)NCCC[C@H](N)C(=O)O [arginine butyrate]
enhancement of HbF levels (HbF [9]): 3 fold

O=C(/C=C/c1cccc(S(=O)(=O)Nc2ccccc2)c1)NO [belinostat]
HDAC isoform inhibition profile / selectivity (HDACs 1-9, and 11): inhibited most HDAC isoforms to some degree

Cc1[nH]c2ccccc2c1CCNCc1ccc(/C=C/C(=O)NO)cc1 [panobinostat]
tolerability [10]: without dose limiting or serious adverse effects
increase in HbF (HbF [11]): 2 fold
HDAC isoform inhibition profile / selectivity (HDACs 1-9, and 11): inhibited most HDAC isoforms to some degree

CCCC(=O)[O-].[Na+] [sodium butyrate, reference compound]
decrease of β-globin mRNA level ([2]; sodium butyrate 0.2 μM, day 7 to day 12): 80%
HbF level increase by Western blot ([4]; sodium butyrate 0.2 μM, vs untreated control): 1.4 fold
increase in acH3 level ([7]; sodium butyrate): 3 fold
RNA PolII and acH3 chromatin enrichment in the LCR-HS2 [8]: increased
